PubChem BioAssay AID1845204 (Molecular Pharmacology Branch, DTP, NCI, 2023)
“And” between values parts separate entries of the source, which are not always exact repeats. Equal values may be shown once.

Test system: HSSY-II tumor spheroid viability
Assay: Anticancer human tumor HSSY-II cell line growth inhibition;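 further: spheroids exposed to compounds for seven days before reading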;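 on viability, T/C: percent of DMSO vehicle control viability so 100% = untreated level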
Conditions: spheroids with HUVEC and MSC; for viability, T/C: stronger effect = lower value
From the text: Multicellular complex tumor spheroid response to DNA repair inhibitors in combination with DNA-damaging drugs
This study explores the anticancer activities of DNA-damaging drugs and inhibitors of DNA damage repair, both as single agents and in combinations. Complex tumor spheroids comprised of malignant cells, endothelial cells and mesenchymal stem cells served as an in vitro model for human solid tumors. This model system incorporates physiologically relevant features and patient-derived or established malignant cell lines with clinically relevant genetic alterations from many tumor types. Twenty-six patient-derived or established malignant cell lines were evaluated representing sarcoma, melanoma, small cell lung cancer (SCLC), non-small cell lung cancer (NSCLC), as well as bladder, ovarian and pancreatic cancers. The concentration ranges selected for each drug and investigational agent were based upon clinically achievable concentrations if the clinical Cmax of the agent was known.
Compounds. The drugs and compounds olaparib (NSC753686), talazoparib (NSC767125), berzosertib (NSC777718), elimusertib (NSC800525), nedisertib (NSC802822), VX-984 (NSC792969), AZD-1390 (NSC803789), temozolomide (NSC362856), topotecan (NSC609699), trabectedin (NSC813783), staurosporine (NSC755774), and gemcitabine (NSC613327) were obtained from the National Cancer Institute (NCI) Developmental Therapeutics Program Chemical Repository. The FDA-approved anticancer drug set is available from the Developmental Therapeutics Program at https://dtp.cancer.gov/organization/dscb/obtaining/available_plates.htm. […] The stock solutions were prepared in dimethyl sulfoxide (DMSO, Sigma-Aldrich, St. Louis, MO, cat. D2650) at 400-fold the tested concentration and stored at -70 degrees C. Prior to their use, the stock solutions were diluted in fresh medium and the final DMSO concentration in the assay was 0.25% (v/v). All drugs and investigational agents were tested over a range starting from a high concentration at or near the clinical Cmax and decreasing in half-log increments. If the clinical Cmax for an agent had not been determined, the highest concentration tested was 10 microM.
Cell Lines. The patient-derived cancer cell (PDC) lines: 156681-154-R-J1-PDC, 283228-195-R-J1-PDC, 287954-098-R-J1-PDC, 292921-168-R-J2-PDC, 349418-098-R-PDC, 425362-245-T-J1-PDC, 556581-035-R-J1-PDC, and BL0293-F563-PDC were received from the NCI Patient-Derived Models Repository (PDMR, https://pdmr.cancer.gov). The established cell lines HS-SY-2 (RRID:CVCL_8719), MPNST, and SYO-1 (RRID:CVCL_7146) were obtained from the Sloan Kettering Institute. The alveolar soft parts sarcoma cell line ASPS-1 (RRID:CVCL_S738) was established at the NCI and grown from internal seed stocks. The following established cell lines were purchased from the American Type Culture Collection (ATCC, Manassas, VA): G-401 (ATCC, cat. CRL-1441, RRID:CVCL_0270), SW982 (ATCC, cat. HTB-93, RRID:CVCL_1734), VA-ES-BJ (ATCC, cat. CRL-2138, RRID:CVCL_1785), NCI-H719 (ATCC, cat. CRL-5837, RRID:CVCL_1582), NCI-H196 (ATCC, cat. CRL-5823, RRID:CVCL_1509), NCI-H841 (ATCC, cat. CRL-5845, RRID:CVCL_1595), NCI-H1618 (ATCC, cat. CRL-5879, RRID:CVCL_1480), NCI-H1876 (ATCC, cat. CRL-5902, RRID:CVCL_1503), DMS 114 (ATCC, cat. CRL-2066; RRID:CVCL_1174), NCI-H211 (ATCC, cat. CRL-5824; RRID:CVCL_1529), and SW 1271 (ATCC, cat. CRL-2177, RRID:CVCL_1716). The small cell lung cancer cell line COR-L88 was purchased from Sigma-Aldrich (cat. 92031917-1VL, RRID:CVCL_1141). The non-small cell lung cancer cell lines NCI-H226 (RRID:CVCL_1544) and NCI-H322M (RRID:CVCL_1557) were established at the NCI and grown from internal seed stocks. Pooled donor human umbilical vein endothelial cells (HUVEC, Lonza, cat. CC-2519) and human mesenchymal stem cells (hMSC, Lonza, cat. PT-2501) were purchased from Lonza (Walkersville, MD).
Cell Culture. All cells were maintained in an incubator at 37 degrees C and 5% CO2 with 95% humidity. […]

## Cc1cc(C)c(CNC(=O)c2cc(-c3ccc(CN4CCOCC4)cc3)cc3c2cnn3C2CCCC2)c(=O)[nH]1 + CC[C@@]1(O)C(=O)OCc2c1cc1n(c2=O)Cc2cc3c(CN(C)C)c(O)ccc3nc2-1
Curve of first compound, second compound 0.003 µM
  IC50: > 10 µM
Curve of first compound, second compound 0.00949 µM
  IC50: < 0.0316 µM
Curve of first compound, second compound 0.03 µM
  IC50: < 0.0316 µM
Curve of first compound, second compound 0.0949 µM
  IC50: < 0.0316 µM
Curve of first compound, second compound 0.3 µM
  IC50: < 0.0316 µM
Second compound 0.003 µM, first compound 0.0316 µM
  viability, T/C: 79.2%
Second compound 0.003 µM, first compound 0.1 µM
  viability, T/C: 81%
Second compound 0.003 µM, first compound 0.316 µM
  viability, T/C: 81.3%
Second compound 0.003 µM, first compound 1 µM
  viability, T/C: 81.9%
Second compound 0.003 µM, first compound 3.16 µM
  viability, T/C: 79.1%
Second compound 0.003 µM, first compound 10 µM
  viability, T/C: 64%
Second compound 0.00949 µM, first compound 0.0316 µM
  viability, T/C: 39.4%
Second compound 0.00949 µM, first compound 0.1 µM
  viability, T/C: 40.1%
Second compound 0.00949 µM, first compound 0.316 µM
  viability, T/C: 42.9%
Second compound 0.00949 µM, first compound 1 µM
  viability, T/C: 47.4%
Second compound 0.00949 µM, first compound 3.16 µM
  viability, T/C: 38%
Second compound 0.00949 µM, first compound 10 µM
  viability, T/C: 49.7%
Second compound 0.03 µM, first compound 0.0316 µM
  viability, T/C: 6.06%
Second compound 0.03 µM, first compound 0.1 µM
  viability, T/C: 7.28%
Second compound 0.03 µM, first compound 0.316 µM
  viability, T/C: 7.77%
Second compound 0.03 µM, first compound 1 µM
  viability, T/C: 9.15%
Second compound 0.03 µM, first compound 3.16 µM
  viability, T/C: 9.78%
Second compound 0.03 µM, first compound 10 µM
  viability, T/C: 11.9%
Second compound 0.0949 µM, first compound 0.0316 µM
  viability, T/C: 6.68%
Second compound 0.0949 µM, first compound 0.1 µM
  viability, T/C: 11.9%
Second compound 0.0949 µM, first compound 0.316 µM
  viability, T/C: 7.28%
Second compound 0.0949 µM, first compound 1 µM
  viability, T/C: 7.31%
Second compound 0.0949 µM, first compound 3.16 µM
  viability, T/C: 8.02%
Second compound 0.0949 µM, first compound 10 µM
  viability, T/C: 9.19%
Second compound 0.3 µM, first compound 0.0316 µM
  viability, T/C: 4.56%
Second compound 0.3 µM, first compound 0.1 µM
  viability, T/C: 4.19%
Second compound 0.3 µM, first compound 0.316 µM
  viability, T/C: 4.75%
Second compound 0.3 µM, first compound 1 µM
  viability, T/C: 5.11%
Second compound 0.3 µM, first compound 3.16 µM
  viability, T/C: 6.37%
Second compound 0.3 µM, first compound 10 µM
  viability, T/C: 7.28%

## CC(C)n1c(=O)n(C)c2cnc3cc(F)c(-c4ccc(OCCCN5CCCCC5)nc4)cc3c21
Compound 0.0316 µM
  viability, T/C: 139% and 106% and 97.2%
Compound 0.1 µM
  viability, T/C: 129% and 102% and 101%
Compound 0.316 µM
  viability, T/C: 118% and 97.2% and 96.5%
Compound 1 µM
  viability, T/C: 126% and 86.8% and 85.9%
Compound 3.16 µM
  viability, T/C: 113% and 76.4% and 76.1%
Compound 10 µM
  viability, T/C: 53.6% and 35.9% and 32.6%
Curve of compound
  IC50: > 10 µM and 6.62 µM and 6.22 µM

## CC[C@@]1(O)C(=O)OCc2c1cc1n(c2=O)Cc2cc3c(CN(C)C)c(O)ccc3nc2-1
Compound 0.003 µM
  viability, T/C: 85.6% [middle of 10 runs]
Compound 0.03 µM
  viability, T/C: 9.85% [middle of 10 runs]
Compound 0.0949 µM
  viability, T/C: 8.03% [middle of 9 runs]
Compound 0.3 µM
  viability, T/C: 5.25% [middle of 10 runs]
Compound alone, run of 12/02/2019
  IC50: 8.2 nM [middle of 5 runs]
Compound alone, run of 12/12/2019
  IC50: 11.6 nM [middle of 5 runs]
